This note sets out measurements from ChEMBL document CHEMBL4825758, “Discovery of G Protein-Biased Antagonists against 5-HT7R” (J Med Chem, 2021).

This series is described as follows: Metabolic stability in human liver microsomes assessed as parent compound remaining at 1 uM preincubated for 5 mins followed by NADPH regeneration system addition and measured after 30 mins by LC-MS analysis. It is filed as ADME, Microsome. The note with it: time 35 min, read-out: Stabilty. For orientation: Liver microsomes are vesicles of endoplasmic reticulum, rich in cytochrome P450 enzymes.

Structures are written as SMILES.

`Clc1cccc(-c2n[nH]cc2N2CCCNCC2)c1`: the remaining at 0.5 h, 1 µM was found to be 27.5%.
